From ChEMBL document CHEMBL3046709, “Substituted aminoalcohol ester analogs of indomethacin with reduced toxic effects” (Med Chem Res, 2007) come the findings set out here.

The test system of one data set is Mus musculus. Kind of data set: Analgesic activity in Mus musculus (mouse) assessed as inhibition of acetic acid-induced writhing at 15 mg/kg, po administered 1 hr prior to acetic acid challenge measured at 5 to 20 min relative to control. It is filed as functional.
Data set [1] has as its system Rattus norvegicus. Put plainly: Ulcerogenic activity in 36 hr fasting Rattus norvegicus Sprague-Dawley (rat) stomach assessed as ulcer index at 25 mg/kg, po measured after 4 hr. It is filed as toxicity, organism-based. The arrangement: dose 25 mg/kg, route oral. Conditions: in vivo.
The subject of data set [2] is Rattus norvegicus. Put plainly: Anti-inflammatory activity in Rattus norvegicus Sprague-Dawley (rat) assessed as inhibition of carrageenan-induced paw edema at 3 mg/kg, po administered 1 hr prior to carrageenan-challenge measured after 3 hr by plethysmometric analysis relative to control. It is filed as functional.
The subject of data set [3] is Rattus norvegicus. Kind of data set: Anticholinergic activity in po dosed overnight fasted Rattus norvegicus (rat) ileum. Conditions: read-out: pA2 (converted). Type of data set: functional.
Data set [4] is described as follows: Half life in aqueous buffer at 1 mg/ml at pH 7.4 measured for 6 hr. It is filed as ADME.

Structures can show the parent of a compound that is named as a salt.

For `COc1ccc2c(c1)c(CC(=O)O)c(C)n2C(=O)c1ccc(Cl)cc1` [INDOMETHACIN], the inhibition in vivo at 15 mg/kg in the data set with Mus musculus turned out to be 42.1%. Further, the UI in the data set with Rattus norvegicus [1] came to 0.547. Further, the inhibition in vivo at 3 mg/kg with Rattus norvegicus [2] was 45.4%.

With `COc1ccc2c(c1)c(CC(=O)OCCN1CCOCC1)c(C)n2C(=O)c1ccc(Cl)cc1`, the inhibition in vivo at 15 mg/kg with Mus musculus turned out to be 35.5%. The UI in the data set on Rattus norvegicus [1] worked out at 0.259. Moreover, the Kb with Rattus norvegicus [3] is 6.92 µM. In addition, the inhibition in vivo at 3 mg/kg in the data set with Rattus norvegicus [2] was 23.1%. The same compound gave a half-life at 1 mg/ml in data set [4] of 52 h.

On to `COc1ccc2c(c1)c(CC(=O)OCCN1CCCCC1)c(C)n2C(=O)c1ccc(Cl)cc1`, for which the inhibition in vivo at 15 mg/kg in the data set on Mus musculus amounted to 35%. Also, in the data set with Rattus norvegicus [1], the UI worked out at 0.134. The Kb in the data set with Rattus norvegicus [3] was 9.12 µM. For the same compound, the inhibition in vivo at 3 mg/kg in the data set on Rattus norvegicus [2] is 16.6%. Moreover, the half-life at 1 mg/ml in data set [4] is 66 h.

Turning to `CN1C2CCC1CC(OC(=O)C(CO)c1ccccc1)C2` (stereo not drawn) [ENDO-ATROPINE SULFATE], in the data set on Rattus norvegicus [3], the Kb was 0.00631 µM.

Turning to `COc1ccc2c(c1)c(CC(=O)OCCN1CCCC1)c(C)n2C(=O)c1ccc(Cl)cc1`, the inhibition in vivo at 15 mg/kg in the data set with Mus musculus amounted to 37.2%. Besides, the UI with Rattus norvegicus [1] was determined as 0.341. Further, the Kb with Rattus norvegicus [3] is 12 µM. Further, the inhibition in vivo at 3 mg/kg in the data set on Rattus norvegicus [2] came to 37.5%. This compound also had a half-life at 1 mg/ml in data set [4] of 99 h.

As for `COc1ccc2c(c1)c(CC(=O)OCCN(C)C)c(C)n2C(=O)c1ccc(Cl)cc1`, in the data set on Mus musculus, the inhibition in vivo at 15 mg/kg worked out at 39.9%. In addition, the UI in the data set with Rattus norvegicus [1] came out at 0.149. Also, the Kb with Rattus norvegicus [3] is 6.46 µM. Also, in the data set on Rattus norvegicus [2], the inhibition in vivo at 3 mg/kg was 46.7%. In data set [4], this compound showed a half-life at 1 mg/ml of 34 h.

Consider `CCN(CC)CCOC(=O)Cc1c(C)n(C(=O)c2ccc(Cl)cc2)c2ccc(OC)cc12`, for which the inhibition in vivo at 15 mg/kg with Mus musculus stood at 23%. Also, the UI with Rattus norvegicus [1] was 0.317. Also, the Kb with Rattus norvegicus [3] is 32.4 µM. Moreover, the inhibition in vivo at 3 mg/kg in the data set on Rattus norvegicus [2] was 34.6%. The compound further had a half-life at 1 mg/ml in data set [4] of 39 h.
